Assay results from ChEMBL document CHEMBL1201862, “PubChem BioAssay data set” (2004).
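96-well plates; 48 h exposure; 5 concentrations. Endpoints by linear interpolation between flanking doses. Not reached: highest tested concentration assigned. GI50 marks 50% less growth.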 Calls of active or inactive are those of the source. No stated cut-off is given here; in the data, active = GI50 up to about 1.1 µM and inactive = higher.

Columns and labels:
Assay in all cases: NCI tumour cell line growth inhibition, 48 h
[1] = system: SR
[2] = system: RPMI-8226
[3] = system: A498
[4] = system: SNB-75
[5] = system: OVCAR-4
[6] = system: RXF 393
[7] = system: SNB-19
[8] = system: SK-MEL-5
[9] = system: HCT-116
[10] = system: EKVX
[11] = system: Hs-578T
[12] = system: HL-60
[13] = system: ACHN
[14] = system: DU-145
[15] = system: 786-0
[16] = system: Malme-3M
[17] = system: MDA-MB-231
[18] = system: HT-29
[19] = system: UACC-62
[20] = system: SN12C
[21] = system: SK-MEL-28
[22] = system: SW-620
[23] = system: PC-3
[24] = system: A549
[25] = system: M14
[26] = system: MOLT-4
[27] = system: SK-MEL-2
[28] = system: HOP-92
[29] = system: IGROV-1
[30] = system: TK-10
[31] = system: OVCAR-5
[32] = system: CCRF-CEM
[33] = system: LOX IMVI
[34] = system: U-251
[35] = system: HOP-62
[36] = system: SK-OV-3
[37] = system: KM12
[38] = system: NCI/ADR-RES
[39] = system: MCF7
[40] = system: NCI-H460
[41] = system: UACC-257
[42] = system: OVCAR-8
[43] = system: NCI-H522
[44] = system: K562
[45] = system: HCT-15
[46] = system: CAKI-1
[47] = system: SF-268
[48] = system: T47D
[49] = system: MDA-N
[50] = system: MDA-MB-435
[51] = system: COLO 205
[52] = system: NCI-H226
[53] = system: SF-295
[54] = system: OVCAR-3
[55] = system: SF-539
[56] = system: UO-31
[57] = system: NCI-H23
[58] = system: HCC 2998

## CCCCCCCCCCCCCCCCCCOC[C@H](COP(=O)(O)O[C@H]1[C@H](O)[C@@H](O)[C@H](O)C[C@H]1O)OC
[1]
  GI50: 15.8 µM (inactive)
[2]
  GI50: 22.1 µM (inactive)
[3]
  GI50: > 100 µM (inactive)
[4]
  GI50: 19.2 µM (inactive)

## CC(C)=C[C@@H]1C[C@H](n2cc(C)c(=O)[nH]c2=O)ON1CCO
[5]
  GI50: > 100 µM (inactive)
[1]
  GI50: > 100 µM (inactive)
[6]
  GI50: > 100 µM (inactive)
[7]
  GI50: > 100 µM (inactive)
[8]
  GI50: > 100 µM (inactive)
[9]
  GI50: > 100 µM (inactive)
[10]
  GI50: > 100 µM (inactive)
[11]
  GI50: > 100 µM (inactive)
[12]
  GI50: 3.08 µM (inactive)
[13]
  GI50: > 100 µM (inactive)
[14]
  GI50: > 100 µM (inactive)
[15]
  GI50: > 100 µM (inactive)
[16]
  GI50: > 100 µM (inactive)
[17]
  GI50: > 100 µM (inactive)
[18]
  GI50: > 100 µM (inactive)
[19]
  GI50: > 100 µM (inactive)
[20]
  GI50: > 100 µM (inactive)
[21]
  GI50: > 100 µM (inactive)
[22]
  GI50: > 100 µM (inactive)
[23]
  GI50: > 100 µM (inactive)
[24]
  GI50: > 100 µM (inactive)
[25]
  GI50: > 100 µM (inactive)
[26]
  GI50: > 100 µM (inactive)
[27]
  GI50: > 100 µM (inactive)
[28]
  GI50: > 100 µM (inactive)
[29]
  GI50: > 100 µM (inactive)
[2]
  GI50: > 100 µM (inactive)
[30]
  GI50: > 100 µM (inactive)
[31]
  GI50: > 100 µM (inactive)
[32]
  GI50: > 100 µM (inactive)
[33]
  GI50: > 100 µM (inactive)
[34]
  GI50: > 100 µM (inactive)
[35]
  GI50: > 100 µM (inactive)
[36]
  GI50: > 100 µM (inactive)
[37]
  GI50: > 100 µM (inactive)
[38]
  GI50: > 100 µM (inactive)
[39]
  GI50: > 100 µM (inactive)
[40]
  GI50: > 100 µM (inactive)
[41]
  GI50: > 100 µM (inactive)
[42]
  GI50: > 100 µM (inactive)
[43]
  GI50: > 100 µM (inactive)
[44]
  GI50: > 100 µM (inactive)
[45]
  GI50: > 100 µM
[46]
  GI50: > 100 µM (inactive)
[47]
  GI50: > 100 µM (inactive)
[48]
  GI50: > 100 µM (inactive)
[3]
  GI50: > 100 µM (inactive)
[49]
  GI50: > 100 µM (inactive)
[4]
  GI50: > 100 µM (inactive)
[50]
  GI50: > 100 µM (inactive)
[51]
  GI50: > 100 µM (inactive)
[52]
  GI50: > 100 µM (inactive)
[53]
  GI50: > 100 µM (inactive)
[54]
  GI50: > 100 µM (inactive)
[55]
  GI50: > 100 µM (inactive)
[56]
  GI50: > 100 µM (inactive)

## CCN(CC)CCCNc1nc(=O)[nH]c(C)c1C(=O)Nc1ccc2c(c1)c1ccccc1n2CC
[5]
  GI50: > 100 µM (inactive)
[6]
  GI50: > 100 µM (inactive)
[7]
  GI50: > 100 µM (inactive)
[8]
  GI50: > 100 µM (inactive)
[9]
  GI50: > 100 µM (inactive)
[10]
  GI50: > 100 µM (inactive)
[12]
  GI50: > 100 µM (inactive)
[13]
  GI50: > 100 µM (inactive)
[14]
  GI50: > 100 µM (inactive)
[15]
  GI50: > 100 µM (inactive)
[16]
  GI50: > 100 µM (inactive)
[17]
  GI50: > 100 µM (inactive)
[18]
  GI50: > 100 µM (inactive)
[19]
  GI50: > 100 µM (inactive)
[20]
  GI50: > 100 µM (inactive)
[21]
  GI50: > 100 µM (inactive)
[22]
  GI50: > 100 µM (inactive)
[23]
  GI50: > 100 µM (inactive)
[24]
  GI50: > 100 µM (inactive)
[25]
  GI50: > 100 µM (inactive)
[26]
  GI50: > 100 µM (inactive)
[27]
  GI50: > 100 µM (inactive)
[28]
  GI50: > 100 µM (inactive)
[29]
  GI50: > 100 µM (inactive)
[2]
  GI50: > 100 µM (inactive)
[30]
  GI50: > 100 µM (inactive)
[31]
  GI50: > 100 µM (inactive)
[32]
  GI50: > 100 µM (inactive)
[33]
  GI50: > 100 µM (inactive)
[34]
  GI50: > 100 µM (inactive)
[57]
  GI50: > 100 µM (inactive)
[35]
  GI50: > 100 µM (inactive)
[36]
  GI50: > 100 µM (inactive)
[37]
  GI50: > 100 µM (inactive)
[38]
  GI50: > 100 µM (inactive)
[39]
  GI50: > 100 µM (inactive)
[41]
  GI50: > 100 µM (inactive)
[42]
  GI50: > 100 µM (inactive)
[43]
  GI50: > 100 µM (inactive)
[44]
  GI50: > 100 µM (inactive)
[45]
  GI50: > 100 µM
[46]
  GI50: > 100 µM (inactive)
[48]
  GI50: > 100 µM (inactive)
[49]
  GI50: > 100 µM (inactive)
[4]
  GI50: > 100 µM (inactive)
[50]
  GI50: > 100 µM (inactive)
[51]
  GI50: > 100 µM (inactive)
[52]
  GI50: > 100 µM (inactive)
[53]
  GI50: > 100 µM (inactive)
[54]
  GI50: > 100 µM (inactive)
[55]
  GI50: > 100 µM (inactive)
[58]
  GI50: > 100 µM (inactive)
[56]
  GI50: > 100 µM (inactive)
